We go through 30 molecules from US20250388551A1, “COMPOUNDS INDUCING PRODUCTION OF PROTEINS BY IMMUNE CELLS” (UNIVERSITE PARIS CITE, priority 2022, published 2025).

This assay has as its system human B cells. Kind of assay: IL-10 induction in human B cells cultivated with anti-IgM plus CpG. The format is cell-based. The following applies: B-cell, 48 h, 2 days, IL-10 in cell culture supernatants, read-out: IL-10 mean induction fold in human B cells treated with compound compared to DMSO control. Here is the method:
Human B cells isolated magnetically through negative selection (B Cell Isolation Kit II, human, Miltenyi ref: 130-091-151) were cultivated for 2 consecutive days in the presence of anti-IgM plus CpG in the presence of the indicated molecule (see table 1) at 0.25 μM final concentration, or DMSO as control. IL-10 was measured in cell culture supernatants, and the IL-10 induction fold was calculated for each molecule compared to the DMSO control.
Human B cells isolated magnetically through negative selection (B Cell Isolation Kit II, human, Miltenyi ref: 130-091-151) were cultivated for 2 consecutive days in the presence of anti-IgM plus CpG in the presence of DMSO (as control) or in the presence of the tested molecule at 0.25 μM final concentration. IL-10 was measured in cell culture supernatants. NS: non stimulated B cell culture condition.

With `O=C(Nc1ccc2[nH]c(-c3ccc(F)cc3)nc2c1)c1cc(F)cc2nccnc12` [Compound 54, 7-Fluoro-N-[2-(4-fluorophenyl)-1H-benzimidazol-6-yl]-5-quinoxalinecarboxamide], the fold induction at 0.25 µM came to 1.71.

Consider `Fc1cccc(-c2nc3cc(Br)ccc3[nH]2)c1` [Compound 110, 6-Bromo-2-(3-fluorophenyl)-1H-benzimidazole], for which the fold induction at 0.25 µM stood at 1.43.

In the case of `COc1ccccc1C(=O)Nc1ccc2c(c1)nc1c3ccccc3c(C)nn21` [Compound 40, 2-Methoxy-N-(5-methylbenzimidazo[2,1-a]phthalazin-10-yl)benzamide], the fold induction at 0.25 µM came to 1.72.

For `Nc1ccc(C(=O)Nc2ccc(-c3nc4cc(NC(=O)c5ccc(N)cc5)c(Cl)cc4[nH]3)cc2)cc1` [Compound 67, 4-Amino-N-[4-[5-[(4-aminobenzoyl)amino]-6-chloro-1H-benzimidazol-2-yl]phenyl]benzamide], the fold induction at 0.25 µM was found to be 1.84.

Take `COc1ccccc1NC(=O)c1ccc2nc(-c3cccnc3)[nH]c2c1` [Compound 375, N-(2-methoxyphenyl)-2-(pyridin-3-yl)-1H-benzo[d]imidazole-6-carboxamide]: the fold induction at 0.25 µM was found to be 1.6.

Take `O=C(Nc1ccc2c(c1)nc1c3ccccc3c(-c3ccc(Cl)cc3)nn21)c1ccccc1` [Compound 43, N-[5-(4-Chloro-phenyl)benzimidazo[2,1-a]phthalazin-10-yl]benzamide]: the fold induction at 0.25 µM was 1.3.

For `CN(C)S(=O)(=O)c1cc(C(=O)Nc2ccc3[nH]c(-c4ccc(F)cc4)nc3c2)ccc1Cl` [Compound 4, 4-Chloro-3-[(dimethylamino)sulfonyl]-N-[2-(4-fluorophenyl)-1H-benzimidazol-6-yl]benzamide], the fold induction at 0.25 µM was determined as 1.49.

For the molecule `COc1ccccc1NC(=O)c1ccc2nc(-c3ccccc3F)[nH]c2c1` [Compound 371, 2-(2-fluorophenyl)-N-(2-methoxyphenyl)-1H-benzo[d]imidazole-6-carboxamide], the fold induction at 0.25 µM stood at 1.84.

As for `O=C(Nc1ccc2[nH]c(-c3cccnc3)nc2c1)c1ccccc1` [Compound 107, N-[2-(3-Pyridinyl)-1H-benzimidazol-6-yl]benzamide], the fold induction at 0.25 µM worked out at 1.33.

`O=C(Nc1ccc2nc(-c3cccc(F)c3)[nH]c2c1)c1ccccc1` [Compound 117, N-(2-(3-fluorophenyl)-1H-benzo[d]imidazol-6-yl)benzamide]: the fold induction at 0.25 µM was 1.93.

Take `O=C1CCSc2ccc(C(=O)Nc3ccc4[nH]c(-c5cccc(F)c5)nc4c3)cc2N1` [Compound 58, N-[2-(3-fluorophenyl)-1H-benzimidazol-5-yl]-4-oxo-3,5-dihydro-2H-1,5-benzothiazepine-7-carboxamide]: the fold induction at 0.25 µM worked out at 1.56.

Take `Fc1ccccc1-c1nc2ccc(Br)cc2[nH]1` [Compound 136, 6-bromo-2-(2-fluorophenyl)-1H-Benzimidazole]: the fold induction at 0.25 µM was 2.88.

In the case of `COc1ccccc1NC(=O)c1ccc2nc(-c3ccccc3)[nH]c2c1` [Compound 366, N-(2-methoxyphenyl)-2-phenyl-1H-benzo[d]imidazole-6-carboxamide], the fold induction at 0.25 µM turned out to be 1.95.

As to `COc1cccc(F)c1C(=O)Nc1ccc2[nH]c(-c3ccc(F)cc3)nc2c1` [Compound 1, 2-Fluoro-N-[2-(4-fluorophenyl)-1H-benzimidazol-6-yl]-6-methoxybenzamide], the fold induction at 0.25 µM was 1.91.

Take `O=C(Nc1ccc2[nH]c(-c3cccc(F)c3)nc2c1)c1ccc(-n2cc[nH]c2=S)cc1` [Compound 57, N-[2-(3-fluorophenyl)-1H-benzimidazol-5-yl]-4-(2-sulfanylidene-3H-imidazol-1-yl)benzamide]: the fold induction at 0.25 µM was 1.33.

On to `COc1ccccc1C(=O)Nc1ccc2nc(-c3ccc(F)cc3)[nH]c2c1` [Compound 145, N-(2-(4-fluorophenyl)-1H-benzo[d]imidazol-6-yl)-2-methoxybenzamide], for which the fold induction at 0.25 µM is 1.59.

With `COc1ccccc1C(=O)Nc1ccc2nc(-c3cccc(F)c3)[nH]c2c1` [Compound 153, N-(2-(3-fluorophenyl)-1H-benzo[d]imidazol-6-yl)-2-methoxybenzamide], the fold induction at 0.25 µM was determined as 1.38.

On to `Cc1ccc(-c2nn3c4ccc(NC(=O)c5ccccc5I)cc4nc3c3ccccc23)cc1` [Compound 30, 2-lodo-N-[5-(4-methyl-phenyl)benzimidazo[2,1-a]phthalazin-10-yl]benzamide], for which the fold induction at 0.25 µM is 1.37.

With `COc1ccccc1C(=O)Nc1ccc2nc(-c3ccccc3F)[nH]c2c1` [Compound 157, N-(2-(2-fluorophenyl)-1H-benzo[d]imidazol-6-yl)-2-methoxybenzamide], the fold induction at 0.25 µM came to 1.61.

For `O=C(Nc1ccc(-c2nc3ccc(NC(=O)c4ccc(/N=C/c5ccccc5O)cc4)c(Cl)c3[nH]2)cc1)c1ccc(/N=C/c2ccccc2O)cc1` [Compound 22, N-[4-(7-chloro-6-{[(4-{[(E)-(2-hydroxyphenyl)methylidene]amino}phenyl)carbonyl]amino}-1H-benzimidazol-2-yl)phenyl]-4-{[(E)-(2-hydroxyphenyl)methylidene]amino} benzamide], the fold induction at 0.25 µM came to 1.34.

As to `Fc1ccc(-c2nc3cc(Br)ccc3[nH]2)cc1` [Compound 111, 6-Bromo-2-(4-fluorophenyl)-1H-benzimidazole], the fold induction at 0.25 µM is 1.56.

As for `O=C(Nc1ccc2[nH]c(-c3cc(F)ccc3F)nc2c1)c1cc(F)cc2nccnc12` [Compound 56, N-[2-(2,5-Difluorophenyl)-1H-benzimidazol-6-yl]-7-fluoro-5-quinoxalinecarboxamide], the fold induction at 0.25 µM is 1.76.

On to `Cc1ccc(-c2nn3c4ccc(NC(=O)c5ccccc5)cc4nc3c3ccccc23)cc1` [Compound 31, N-[5-(4-Methylphenyl)benzimidazo [2,1-a]phthalazin-10-yl]benzamide], for which the fold induction at 0.25 µM amounted to 1.72.

`O=C(Nc1ccc2nc(-c3ccccc3F)[nH]c2c1)c1ccccc1` [Compound 120, N-(2-(2-fluorophenyl)-1H-benzo[d]imidazol-6-yl)benzamide]: the fold induction at 0.25 µM turned out to be 1.68.

Turning to `O=C(Nc1ccc2[nH]c(-c3ccccc3)nc2c1)c1ccccc1` [Compound N4, N-(2-Phenyl-1H-benzimidazol-6-yl)benzamide], the fold induction at 0.25 µM came to 1.61.

Turning to `O=C(Nc1ccc2nc(-c3ccc(F)cc3)[nH]c2c1)c1ccccc1` [Compound 116, N-[2-(4-Fluorophenyl)-1H-benzimidazol-6-yl]benzamide], the fold induction at 0.25 µM is 1.48.

Consider `COc1ccccc1C(=O)Nc1ccc2nc(-c3cccnc3)[nH]c2c1` [Compound 124, 2-Methoxy-N-[2-(3-pyridinyl)-1H-benzimidazol-6-yl]benzamide], for which the fold induction at 0.25 µM came to 3.5.

Turning to `O=C(Nc1ccc2[nH]c(-c3ccccc3Cl)nc2c1)c1ccccc1N1CCOCC1` [Compound 61, N-[2-(2-Chlorophenyl)-1H-benzimidazol-6-yl]-2-(4-morpholinyl)benzamide], the fold induction at 0.25 µM was 2.18.

In the case of `CSc1ccccc1C(=O)Nc1ccc2[nH]c(-c3cccc(F)c3)nc2c1` [Compound 52, N-[2-(3-Fluorophenyl)-1H-benzimidazol-6-yl]-2-(methylthio)benzamide], the fold induction at 0.25 µM was determined as 1.91.

`COc1ccccc1C(=O)Nc1ccc2c(c1)nc1c3ccccc3c(-c3ccc(C)cc3)nn21` [Compound 32, 2-Methoxy-N-[5-(4-methylphenyl)benzimidazo [2,1-a]phthalazin-10-yl]benzamide]: the fold induction at 0.25 µM was 1.42.
